This passage reports EC50 and IC50 results from ChEMBL document CHEMBL5230150, “Antiviral fungal metabolites and some insights into their contribution to the current COVID-19 pandemic” (Bioorg Med Chem, 2021).

In one assay the test system is Hepatitis C virus. The assay can be described thus: Antiviral activity against HCV J8CC. The class given is functional, organism-based, Hepacivirus hominis.
Assay [1] deals with Influenza A virus. The assay can be described thus: Antiviral activity against Influenza A virus A/Puerto Rico/8/34(H1N1) strain infected in MDCK cells assessed as inhibition of viral infection incubated for 60 mins by CPE inhibition assay. The following applies: 1 h. The class given is functional, organism-based.
Assay [2] concerns Zika virus. The assay can be described thus: Antiviral activity against ZIKV Z16019 infected in A549 cells assessed as inhibition in viral replication at MOI of 1 incubated for 1 hr by plaque assay. Type of assay: functional, organism-based. The following applies: Z16019, A549, 1 h.
The subject of assay [3] is Influenza A virus. The assay can be described thus: Antiviral activity against Influenza A virus A/Puerto Rico/8/34(H1N1) strain infected in MDCK cells assessed as inhibition of viral infection by CPE inhibition assay. Type of assay: functional, organism-based.
Assay [4] relates to dengue virus type 2. The assay can be described thus: Antiviral activity against DENV2 assessed as inhibition of viral replication by DENV RNA-dependent RNA polymerase assay. Type of assay: functional, organism-based.
For assay [5], the system named is dengue virus type 2. The assay can be described thus: Antiviral activity against DENV2 00st-22A infected in Vero cells assessed as reduction in viral replication at MOI of 0.5 incubated for 48 hrs by focus-forming assay. The class given is functional, organism-based.
Assay [6] concerns Human immunodeficiency virus 1. The assay can be described thus: Antiviral activity against HIV-1 infected in SUP-T1 cells assessed as inhibition of viral replication at MOI of 1 treated for 48 hrs by luciferase assay. The class given is functional, organism-based. The following applies: Human immunodeficiency virus 1, SUP-T1, 48 h.
For assay [7], the system named is Zika virus. The assay can be described thus: Antiviral activity against ZIKV infected in A549 cells assessed as viral replication inhibition. Type of assay: functional, organism-based.
Assay [8] concerns dengue virus type 2. The assay can be described thus: Antiviral activity against DENV2 16681 infected in HEK293T/17 cells assessed as reduction in viral replication at MOI of 1 to 10 incubated for 24 hrs by standard plaque assay. The class given is functional, organism-based. The conditions noted are these: Dengue virus, 16681, HEK293T/17, 24 h.
Assay [9] has as its system Influenza A virus. The assay can be described thus: Antiviral activity against Influenza A virus H1N1 subtype infected in MDCK cells assessed as inhibition of viral replication incubated for 48 hrs by CPE inhibition assay. The class given is functional, organism-based.
The subject of assay [10] is Influenza A virus. The assay can be described thus: Antiviral activity against Influenza A virus H3N2 subtype infected in MDCK cells assessed as inhibition of viral replication incubated for 48 hrs by CPE inhibition assay. Type of assay: functional, organism-based.

Converted amounts (≈) assume the structure as drawn. Square brackets hold non-standard residues; d marks the D form. Peptide text beside a SMILES is read from it. * marks the point of attachment. Pro(4R-Me) = C[C@H]1CN[C@H](C(=O)O)C1; Oleoyl = CCCCCCCC/C=C\CCCCCCCC(=O)*; hSer = N[C@@H](CCO)C(=O)O

Compound `CC[C@@H]1N[C@@H]2N(C1=O)c1ccccc1[C@@]2(O)C[C@@H]1C(=O)NC(=C(C)C)c2nc3ccccc3c(=O)n21` had a concentration for a half-maximal effect (EC50) in the assay on Hepatitis C virus of 129 µM. As for `COc1cc(O)c2c(c1)C(=O)C1=C(C2=O)[C@H](O)[C@@H](O)[C@@](C)(O)C1`, the IC50 with Influenza A virus [1] stood at 8.35 µg/mL (≈ 26.1 µM). Consider `CC1(C)C(=O)N2c3ccccc3[C@@]3(C[C@H]4n5c(nc6ccccc6c5=O)C(=O)C(C)(C)[C@@]4(O)O3)[C@@H]2N1S(C)(=O)=O`, for which, in the assay on Hepatitis C virus, the EC50 was 110 µM. Turning to `O=C(C(=O)c1c[nH]c2ccccc12)c1c[nH]c2ccccc12`, in the assay with Zika virus [2], the concentration for a half-maximal effect (EC50) turned out to be 4.2 µM. As to `C=C1CCC[C@]2(C)[C@H]3COC(=O)[C@H]3CC[C@@]12O`, in the assay on Influenza A virus [3], the IC50 was 2.96 µg/mL. On to `CC[C@H](C)C(=O)[C@H]1C(=O)O[C@@]2(C)C(=O)C=C3C=C(C)OC=C3[C@H]12` [CHERMESINONE B], for which the IC50 in the assay with Influenza A virus [1] came to 0.8 µg/mL (≈ 2.53 µM).

As for `COc1cc(O)c2c(c1)C(=O)C1=C(C[C@@H](O)[C@@](C)(O)C1)C2=O` [ALTERSOLANOL B], the IC50 in the assay on Influenza A virus [1] was determined as 7.82 µg/mL (≈ 25.7 µM). As to `CC(=O)OC/C=C(\C)[C@@H]1C(C)=C[C@@H]2CC[C@H](O)[C@H](C)[C@H]2[C@@H]1/C=C/C=C/C(=O)O`, in the assay on dengue virus type 2 [4], the IC50 stood at 13.6 µM. As to `C[C@H]1CCC/C=C/[C@@H]2C[C@H](O)C[C@H]2[C@H](O)/C=C/C(=O)O1` [BREFELDIN A], the IC50 in the assay on dengue virus type 2 [5] is 0.0546 µM. On to `COc1ccc2oc3cc(C)c(O)c(CO)c3c(=O)c2c1OC`, for which the half-inhibitory concentration (IC50) with Influenza A virus [3] is 2.17 µM. Consider `C=C(C)C#CC1=C[C@@H]2O[C@@H](C(C)(C)O)C[C@]23O[C@@H]3[C@H]1O`, for which the IC50 in assay [6] is 16.1 µM. As to `C/C=C(\C)[C@@H]1C(C)=C[C@@H]2CC(=O)C[C@H](C)[C@H]2[C@@H]1/C=C/C=C/C(=O)O`, the IC50 in the assay on dengue virus type 2 [4] is 11.8 µM. With `CCCCCCCC/C=C\CCCCCCCC(=O)N[C@H](C(=O)N1C[C@H](C)C[C@H]1C(=O)N[C@H](C(=O)N[C@@H](CCOC(C)=O)C(=O)N[C@@H](C)C=O)C(C)C)[C@@H](C)O` (Oleoyl-T[Pro(4R-Me)]V[hSer](Ac)A-aldehyde), in the assay on Zika virus [2], the EC50 worked out at 5 µM. For the same compound, the IC50 in the assay with Zika virus [7] came to 0.15 µM.

On to `C=C(CC[C@@H](C)[C@H]1CC=C2C3=C(CC[C@@]21C)[C@@]1(C)CC[C@H](O)C[C@@H]1CC3=O)C(C)C`, for which the IC50 in assay [6] worked out at 3.5 µM.

Consider `COc1cccc2oc3cc(C)c(O)c(CO)c3c(=O)c12`, for which, in the assay on Influenza A virus [3], the concentration for half-maximal inhibition (IC50) amounted to 4.7 µM.

On to `CC(C)[C@@H]1NC(=O)[C@@H](C[C@@]2(O)c3ccccc3N3C(=O)C(C)(C)N[C@@H]32)n2c1nc1ccccc1c2=O`, for which the EC50 in the assay on dengue virus type 2 [8] stood at 4.73 µM. `CC[C@H](C)[C@@H](O)C(=O)[C@H]1C2=COC(C)=CC2=CC(=O)[C@@]1(C)O`: the IC50 in [6] amounted to 0.5 µM.

For `CC[C@H]1O[C@@H]2O[C@H](/C=C/C=C/C=C/c3oc(=O)cc(OC/C=C(\C)C(=O)OC)c3C)[C@H](O)[C@]2(C)[C@@]1(C)O`, the concentration for a half-maximal effect (EC50) with Influenza A virus [9] came out at 3.5 µM; in the assay with Influenza A virus [10] it was 6.2 µM. As for `C[C@]1(O)CC2=C(C(=O)c3c(O)cc(O)cc3C2=O)[C@H](O)[C@H]1O`, the IC50 in the assay with Influenza A virus [1] is 2.59 µg/mL (≈ 8.46 µM). In the case of `COC(=O)/C(C)=C/COc1cc(=O)oc(/C=C/C=C/C=C/[C@H]2O[C@H]3O[C@H](C)[C@](C)(O)[C@@]3(C)[C@H]2O)c1C`, the 50% effective concentration (EC50) with Influenza A virus [10] came out at 8.9 µM.
